The numbers were not newly measured in patent US20130230587A1, “SUSTAINED RELEASE COMPOSITIONS” (Rubicon Research Private Limited, priority 2010, published 2013), which cites them from elsewhere.

As to `COc1ccc2c(c1)[C@]13CCCC[C@@H]1[C@H](C2)N(C)CC3` [Dextromethorphan], the “Time to peak plasma concentrations” value (absorbed from the gastrointestinal tract) is “approximately 2.5 hours”. Besides, the Plasma elimination half-life (in vivo) is 1.2 to 3.9 h.
